In patent publication US7495027B2, “3-aryl-4-hydroxyfuranone compounds and the human and animal health use thereof” (Wyeth, priority 2003, dated 2009) one finds Mortality and Rating data, which are given here for 30 molecules.

Structures are written as SMILES.

Assay [1] concerns Trichostrongylus columbriformis. The assay can be described thus: In vivo efficacy against T. colubriformis in infected gerbils. Particulars: gerbils infected with T. colubriformis, single oral dose of 50 mg/kg by gavage, worm counts four days post-treatment, % mortality as compared to negative control. As for the experimental part: In Vivo Evaluation of the Efficacy of Test Compounds Against T. colubriformis
In this evaluation, gerbils are infected with Trichostrongylus columbriformis infective larvae at a concentration of approximately 800 L3/mL. Larvae for gerbil infections are cultured from feces from sheep previously infected with T. colubriformis. One week post infection, test compounds are administered by gavage as a single oral dose of 50 mg/kg of body weight. For each group of 3 gerbils, 10 mg of test compound are dissolved in 2 mL of PEG 400:DMSO (1:2 v/v) and each animal is administered the test solution at a rate of 0.1 mL/10 g of body weight. […] All animals are observed daily for morbidity and mortality. Four days post-treatment, all animals are weighed and necropsied. Worm counts are conducted with the use of stereoscopes and counters.

Assay [2] deals with C. elegans. The assay is described as follows: Efficacy against nematodes (C. elegans motility rating). Conditions: observations at 4 h and 24 h postimmersion. Set-up: key: 0: no effect; 7: reduced movement in 24 h; 8: dead in 24 h; 9: dead in 4 h. The essentials:
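Mixed-stage C. elegans (~50 per well, L1 to adult) in M9 buffer exposed to test compound at 100 ppm, 150 ppm or 200 μM final. Motility of larvae and adults scored under dissecting microscope at 4 h and 24 h.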

The molecule `O=C1OC(=Cc2ccc(C(F)(F)F)c(F)c2)C(O)=C1c1ccc(OC(F)(F)F)cc1` (mixture of isomers) [R=H; R1=4-OCF3—C6H4**; R2=3-F-4-CF3—C6H3] had a Mortality in assay [1] of 44.20%. The same molecule displayed a Rating in assay [2] (dose 100 ppm) of 9.

In turn, `O=C1OC(=Cc2ccc(OC(F)F)cc2)C(O)=C1c1ccc(OC(F)(F)F)cc1` (mixture of isomers) [R=H; R1=4-OCF3—C6H4**; R2=4-OCHF2—C6H4] gave a Mortality in assay [1] of 44.20%. In assay [2] (dose 100 ppm), this molecule showed a Rating of 9.

In assay [1], `O=C1OC(=Cc2ccc(Oc3ccccc3)cc2)C(O)=C1c1ccc(OC(F)(F)F)cc1` (mixture of isomers) [R=H; R1=4-OCF3—C6H4**; R2=4-phenoxy-C6H4] came in with a Mortality of 0.00%. In addition, the Rating in assay [2] (dose 100 ppm) turned out to be 0.

As for `O=C1OC(=Cc2ccccn2)C(O)=C1c1ccc(OC(F)(F)F)cc1` (mixture of isomers) [R=H; R1=4-OCF3—C6H4**; R2=pyridine-2-yl], in assay [1], the Mortality is recorded as 0.00%. This molecule showed a Rating in assay [2] (dose 100 ppm) of 0.

`O=C1OC(=Cc2cccnc2)C(O)=C1c1ccc(OC(F)(F)F)cc1` (mixture of isomers) [R=H; R1=4-OCF3—C6H4**; R2=pyridine-3-yl]: the Mortality in assay [1] was 0.00%. The molecule also came in with a Rating in assay [2] (dose 100 ppm) of 0.

`O=C1OC(=Cc2cccs2)C(O)=C1c1ccc(OC(F)(F)F)cc1` (mixture of isomers) [R=H; R1=4-OCF3—C6H4**; R2=thiophen-2-yl] displayed a Mortality in assay [1] of 0.00%. Moreover, in assay [2] (dose 100 ppm), the Rating was 0.

`O=C1OC(=Cc2ccc3ccccc3c2)C(O)=C1c1cccc2ccccc12` [R=H; R1=1-naphthyl; R2=2-naphthyl] gave a Mortality in assay [1] of 28.90%. In assay [2] (dose 150 ppm), this molecule displayed a Rating of 9.

The molecule `O=C1O/C(=C\c2ccc(-c3ccccc3)cc2)C(O)=C1c1cccc2ccccc12` [R=H; R1=1-naphthyl; R2=4-biphenyl] had a Mortality in assay [1] of 18.50%. The same molecule yielded a Rating in assay [2] (dose 150 ppm) of 9.

`O=C1O/C(=C\c2ccc(-c3ccccc3)cc2)C(O)=C1c1ccc(Cl)cc1Cl` [R=H; R1=2,4-diCl—C6H3; R2=4-biphenyl]: the Mortality in assay [1] came out at 24.50%. Also, in assay [2] (dose 150 ppm), the Rating is recorded as 9.

The molecule `O=C1O/C(=C\c2ccc(-c3ccccc3)cc2)C(O)=C1c1ccccc1C(F)(F)F` [R=H; R1=2-CF3—C6H4; R2=4-biphenyl] had a Mortality in assay [1] of 20.20%. The molecule further returned a Rating in assay [2] (dose 150 ppm) of 8.

In turn, `O=C1O/C(=C\c2cccc3ccccc23)C(O)=C1c1ccc2ccccc2c1` [R=H; R1=2-naphthyl; R2=1-naphthyl] gave a Mortality in assay [1] of 36.10%. Moreover, the Rating in assay [2] (dose 150 ppm) came out at 9.

In turn, `O=C1O/C(=C\c2ccc3ccccc3c2)C(O)=C1c1ccc2ccccc2c1` [R=H; R1=2-naphthyl; R2=2-naphthyl] returned a Mortality in assay [1] of 13.80%. In assay [2] (dose 150 ppm), this molecule came in with a Rating of 9.

Regarding `O=C1O/C(=C\c2ccc(-c3ccccc3)cc2)C(O)=C1c1ccc(Cl)c(Cl)c1` [R=H; R1=3,4-diCl—C6H3; R2=4-biphenyl], the Mortality in assay [1] turned out to be 23.00%. Moreover, the Rating in assay [2] (dose 150 ppm) is listed as 9.

Take `O=C1O/C(=C\c2cccc3ccccc23)C(O)=C1c1cc(Cl)cc(Cl)c1` [R=H; R1=3,5-diCl—C6H3; R2=1-naphthyl]: the Mortality in assay [1] is listed as 0.00%. Also, the Rating in assay [2] (dose 150 ppm) amounted to 9.

For the molecule `O=C1O/C(=C\c2ccc3ccccc3c2)C(O)=C1c1cccc(C(F)(F)F)c1` [R=H; R1=3-CF3—C6H4; R2=2-naphthyl], in assay [1], the Mortality came out at 35.20%. This molecule also showed a Rating in assay [2] (dose 150 ppm) of 9.

`O=C1O/C(=C\c2cccc(C(F)(F)F)c2)C(O)=C1c1cccc(C(F)(F)F)c1` [R=H; R1=3-CF3—C6H4; R2=3-CF3—C6H4] registered a Mortality in assay [1] of 10.10%. In assay [2] (dose 150 ppm), the Rating is 9.

`O=C1O/C(=C\c2ccc(Cl)cc2)C(O)=C1c1cccc(C(F)(F)F)c1` [R=H; R1=3-CF3—C6H4; R2=4-Cl—C6H4] showed a Mortality in assay [1] of 21.60%. In assay [2] (dose 100 ppm), the Rating was determined as 9.

As for `COc1ccc(/C=C2\OC(=O)C(c3cccc(C(F)(F)F)c3)=C2O)cc1` [R=H; R1=3-CF3—C6H4; R2=4-OCH3—C6H4], in assay [1], the Mortality is reported as 3.10%. Besides, the Rating in assay [2] (dose 150 ppm) worked out at 9.

`CC(=O)c1cccc(C2=C(O)C(=Cc3cccc4ccccc34)OC2=O)c1` [R=H; R1=3-COCH3—C6H4; R2=1-naphthyl] returned a Mortality in assay [1] of 10.70%. The molecule also yielded a Rating in assay [2] (dose 150 ppm) of 8.

`O=C1OC(=Cc2ccc(-c3ccccc3)cc2)C(O)=C1c1cccc(Cl)c1` [R=H; R1=3-Cl—C6H4; R2=4-biphenyl] came in with a Mortality in assay [1] of 19.40%. The molecule further showed a Rating in assay [2] (dose 150 ppm) of 9.

With `N#Cc1ccc(C2=C(O)C(=Cc3ccc(-c4ccc(C#N)cc4)cc3)OC2=O)cc1` [R=H; R1=4-CN—C6H4*; R2=4-(4′-CN-biphenyl)], the Mortality in assay [1] came out at 88.07%. The Rating in assay [2] (dose 150 ppm) is on record as 9.

In assay [1], `N#Cc1ccc(C2=C(O)C(=Cc3ccccc3C(F)(F)F)OC2=O)cc1` [R=H; R1=4-CN—C6H4; R2=2-CF3—C6H4] showed a Mortality of 69.78%. In addition, the Rating in assay [2] (dose 150 ppm) is 7.

In assay [1] (50 mg/kg), `N#Cc1ccc(-c2ccc(/C=C3\OC(=O)C(c4ccc(Cl)cc4)=C3O)cc2)cc1` [R=H; R1=4-Cl—C6H4*; R2=4-(4′-CN-biphenyl)] gave a Mortality of 23.80%. Moreover, the Rating in assay [2] (dose 150 ppm) turned out to be 9.

As for `O=C1O/C(=C\c2cccc3ccccc23)C(O)=C1c1ccc(Cl)cc1` [R=H; R1=4-Cl—C6H4; R2=1-naphthyl], the Mortality in assay [1] is on record as 0.00%. This molecule also came in with a Rating in assay [2] (dose 150 ppm) of 9.

As for `O=C1OC(=Cc2ccc3ccccc3c2)C(O)=C1c1ccc(Cl)cc1` [R=H; R1=4-Cl—C6H4; R2=2-naphthyl], in assay [1], the Mortality stood at 52.80%. The molecule also returned a Rating in assay [2] (dose 150 ppm) of 9.

In turn, `COc1ccc(C=C2OC(=O)C(c3ccc(Cl)cc3)=C2O)cc1` [R=H; R1=4-Cl—C6H4; R2=4-OCH3—C6H4] gave a Mortality in assay [1] of 7.10%. Besides, the Rating in assay [2] (dose 150 ppm) turned out to be 0.

As for `COc1ccc(C2=C(O)C(=Cc3ccc(-c4ccccc4)cc3)OC2=O)cc1` [R=H; R1=4-OCH3—C6H4; R2=4-biphenyl], the Mortality in assay [1] was determined as 44.90%. This molecule also yielded a Rating in assay [2] (dose 150 ppm) of 9.

Consider `O=C1O/C(=C\c2ccccc2C(F)(F)F)C(O)=C1c1ccc(-c2ccccc2)cc1` [R=H; R1=4-biphenyl; R2=2-CF3—C6H4], for which, in assay [1], the Mortality is 23.90%. The Rating in assay [2] (dose 150 ppm) is 9.

`O=C1OC(=Cc2ccc(C(F)(F)F)cc2)C(O)=C1c1ccc(-c2ccccc2)cc1` [R=H; R1=4-biphenyl; R2=4-CF3—C6H4] gave a Mortality in assay [1] of 0.00%. In assay [2] (dose 150 ppm), this molecule registered a Rating of 9.

For the molecule `O=C1O/C(=C\c2ccc(Cl)cc2)C(O)=C1c1ccc(-c2ccccc2)cc1` [R=H; R1=4-biphenyl; R2=4-Cl—C6H4], the Mortality in assay [1] came out at 44.70%. In assay [2] (dose 150 ppm), this molecule showed a Rating of 9.
